According to US20030176316A1, “Methods for treatment of rheumatoid arthritis” (priority 2001, published 2003):
Where a name gives a salt, the structure may show the parent alone. Read-outs that look alike come from different tables or passages of the source. One block for each molecule: values may come before it.

Experiments:
[1] = target: T1, GST-cGB-PDE5 fusion protein (cGMP binding sites of human PDE5A) (Homo sapiens, UniProt O76074); assay: cGMP binding assay with GST-cGB-PDE5 fusion protein
T1 construct: made in house; host or cells: E. coli BL21 (DE3)
Excerpt: RT-PCR method is used to obtain the cGB domain of PDE5 with forward and reverse primers designed from bovine PDE5A cDNA sequence (McAllister-Lucas L. M. et al., J Biol. Chem. 268, 22863-22873, 1993) and the selection among PDE 1-10 families. 5′-3′, Inc. kits for total RNA followed by oligo (dT) column purification of mRNA are used with HT-29 cells. […] It is then cloned into pGEX-5×-3 glutathione-S-transferase (GST) fusion vector (Pharmacia Biotech )with tac promoter, and EcoRI and XhoI cut sites. The fusion vector is then transfected into E. Coli BL21 (DE3) bacteria (Invitrogen). The transfected BL21 bacteria is grown to log phase, and then IPTG is added as an induce. The induction is carried at 20° C. for 24 hrs. The bacteria are harvested and lysed. The soluble cell lysate is incubated with GSH conjugated Sepharose 4B (GSH-Sepharose 4B). The GST-cGB-PDE5 fusion protein can bind to the GSH-Sepharose beads, and the other proteins are washed off from beads with excessive cold PBS.
Then, the mixture is transferred to Brandel MB-24 cell harvester with GF/B as the filter membrane followed by 2 washes with 10 mL of cold 5 mM potassium buffer(pH 6.8). The membranes are then cut out and transferred to scintillation, vials followed by the addition of 1 mL of H2O and 6 mL of Ready Safe™ liquid scintillation cocktail to each vial. The vials are counted on a Beckman LS 6500 scintillation counter.
The quenching by filter membrane or other debris are also calibrated.

[2] = seven-day dose-range finding study in rats; assay type: in vivo; conditions: seven days, 2000 mg/kg/day
PDE 5 = PDE 5 (Homo sapiens, UniProt O76074); assay: competitive (with cGMP) binding to PDE5
28-day study in rats = assay type: in vivo; conditions: 28 days, 50 and 500 mg/kg/day
Experimental: A 28-day study in rats was also carried out at 0, 50, 500 and 2000 mg/kg/day.

[3] = long-term safety assessment study in rats, 91 days; assay type: in vivo
Excerpt: These changes were not associated with any gross clinical abnormality.

[4] = 91-day oral study in dogs; assay type: in vivo; conditions: 91 days, highest dose group
U937 cells = assay: apoptosis induction of U937 cells (active caspase 3, indirect immunofluorescence); assay type: cell-based; conditions: 24 hours
Experimental: U937 cells (from ATCC Rockville, Md.) were grown in RPMI media supplemented with 5% FCS, glutamine, antibiotic/antimycotic and sodium pyruvate. Total RNA was isolated from two U937 cultures, one treated with 5nM TPA for 48 hours and one grown in normal media as listed above, using the Rouche High Pure RNA Isolation Kit (cat# 1 828 665) as per manufacturers protocol. cDNA was then synthesized from the total RNA using GibcoBRL Superscriptll (Cat# 18064-022) reverse transcriptase as per manufacturers protocol. The resulting cDNA was used as a template for RT-PCR reactions using primer sets specific for PDE2 (forward: […], reverse: […]) or PDE5 (forward: […], reverse: […]). mRNA for PDE2 and 5 were both present in the untreated U937 cells. Upon treatment with TPA, the relative amounts of PDE2 mRNA increased 5 fold. Therefore, U937 cells treated with TPA and driven to differentiate into an activated macrophage like state have elevated levels of PDE2 mRNA (see FIG. 1).
The presence of PDE2 and PDE5 protein within U937 cells was confirmed by indirect immunofluorescence (IIF). U937 cells were cultured as above. Two U937 cultures, one grown in the presence of 5 nM TPA for 48 hours and one grown in normal media were processed. All cultures were collected by centrifugation (Shandon Cytospin, 2 minutes @ 600 rpm) onto poly-L lysine-coated slides and immediately fixed in fresh 3% paraformaldehyde buffered in PBS for 10 minutes. Adherent cultures were grown on coverslips and fixed as above. Cells were permeablized in 0.2% triton-100 for 2 minutes. Slides were blocked with blocking buffer (5% goat serum, 5% glycerol, 1% gelatin from cold water fish skin and 0.04% NaN3 in PBS) for 1 hour at room temperature.
Slides were then incubated for 1 hour at 37° C. in a humid chamber with antibodies specific for PDE2 (generated in a sheep against the peptide […]) or PDE5 (generated in sheep against the peptide […]). […]
The level of apoptosis in U937 cells was quantified by scoring 500 consecutive cells for the presence of active caspase 3. […]

competition with cGMP in binding to the cGMP binding sites of GST-cGB-PDE5 ([1]; 3H-cGMP 2 μM, 22° C., 1 hour): did not compete with cGMP in binding
SMILES: CCCCOC1C2OP(=O)(O)OCC2OC1n1cnc2c(N)ncnc21 (centres unmarked) [2′-O-butyl-cAMP]

competition with cGMP in binding to the cGMP binding sites of GST-cGB-PDE5 ([1]; 3H-cGMP 2 μM, 22° C., 1 hour): did not compete with cGMP in binding
SMILES: CCCCOC1C2OP(=O)(O)OCC2OC1n1cnc2c(=O)[nH]c(N)nc21 (centres unmarked) [2′-O-butyl-cGMP]

SMILES: Nc1ncnc2c1ncn2[C@@H]1O[C@@H]2COP(=O)(O)O[C@H]2[C@H]1O [Cyclic AMP]
competition with cGMP in binding to the cGMP binding sites of GST-cGB-PDE5 [1]: did not compete with cGMP in binding

liver and thyroid weight increases at the lower doses (28-day study in rats): not statistically significant
microscopic alterations of the liver [4]: no microscopic alterations
SMILES: CC1=C(CC(=O)NCc2ccccc2)c2cc(F)ccc2/C1=C\c1ccncc1 [Example 38, (Z)-5-Fluoro-2-Methyl-(4-Pyridylidene)-3-(N-Benzyl) Indenylacetamide Hydrochloride]
effects [2]: labored breathing and/or abnormal respiratory sounds, decreased weights gains and food consumption ion male rats, and increased liver weights in female rats
competitive (with cGMP) binding to PDE 5 (PDE 5): does competitively (with cGMP) bind to PDE 5
clinical biochemistry and hematology [3]: no changes in clinical biochemistry and hematology were evident
competition with cGMP in binding to the cGMP binding sites of GST-cGB-PDE5 ([1]; 3H-cGMP 2 μM, 22° C., 1 hour): does not bind to the cGMP-binding site of PDE5
apoptosis, fluorescent image of active caspase 3 (FIG. 8) (U937 cells; 1 μM): undergoing apoptosis as reflected by the presence of active caspase 3

competition with cGMP in binding to the cGMP binding sites of GST-cGB-PDE5 ([1]; 3H-cGMP 2 μM, 22° C., 1 hour): did not compete with cGMP in binding
SMILES: Nc1ccn([C@@H]2O[C@@H]3COP(=O)(O)O[C@H]3[C@H]2O)c(=O)n1 [cCMP, cyclic CMP]

competition with cGMP in binding to the cGMP binding sites of GST-cGB-PDE5 ([1]; 3H-cGMP 2 μM, 22° C., 1 hour): did not compete with cGMP in binding
SMILES: O=c1ccn([C@@H]2O[C@@H]3COP(=O)(O)O[C@H]3[C@H]2O)c(=O)[nH]1 [cUMP, cyclic UMP]

SMILES: COc1ccc(C2CNC(=O)C2)cc1OC1CCCC1 (centres unmarked) [rolipram]
levels of apoptosis (active caspase 3) (U937 cells; 0.5 μM): No increase in the levels of apoptosis compared to normal background

SMILES: CCCc1nn(C)c2c(=O)[nH]c(-c3cc(S(=O)(=O)N4CCN(C)CC4)ccc3OCC)nc12 [sildenafil]
levels of apoptosis (active caspase 3) (U937 cells; 0.3 nM): No increase in the levels of apoptosis compared to normal background
